According to article PMC4397963, “Phospho-Tyrosine(s) vs. Phosphatidylinositol Binding in Shc Mediated Integrin Signaling” (American journal of molecular biology, 2015):
pKd: −log10 of the molar value. “Also recorded” adds a separate entry of the source.

Assays:
[1] = biological target: T1, Shc PTB domain (17 – 207) (Homo sapiens, UniProt P29353); test: ITC binding to Shc PTB domain; settings: Shc PTB domain, 12°C and 25°C, several buffers incl. 50 mM Tris pH 8.0, 200 mM NaCl, 1 mM Dithiothreitol
T1 construct: The Shc PTB domain (17 – 207) containing the pET15b vector was transformed into a Rosetta (DE3) cell line; His-tag (N); made in house; host or cells: E. coli Rosetta (DE3), pET15b
T1 sequence (P29353 17-207 isoform P29353-2): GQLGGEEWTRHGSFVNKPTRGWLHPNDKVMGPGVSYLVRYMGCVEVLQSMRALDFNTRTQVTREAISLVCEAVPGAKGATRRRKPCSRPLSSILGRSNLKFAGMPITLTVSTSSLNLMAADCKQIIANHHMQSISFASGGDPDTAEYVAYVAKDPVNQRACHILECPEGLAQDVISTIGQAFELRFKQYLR
Procedure: (§1) The Shc PTB domain (17 – 207) containing the pET15b vector was transformed into a Rosetta (DE3) cell line to pursue optimal expression levels. SH2 domain (380 – 473) was cloned into NdeI and XhoI sites in pET21b vector and then transformed into a BL21 (DE3) cell line. The vector of pET28a-full length Shc (1 – 473), generously provided by Dr. Ladbury (University of Texas MD Anderson Cancer Center, TX), was expressed in a BL21 (DE3) cell line as well. Typically, 10 ml overnight culture was used to inoculate 1 liter LB broth. Cells were grown at 37°C until OD600 reached 0.6. At this point the culture was cooled to room temperature and then the overnight overexpression was induced by 1 mM isopropyl-β-D-thiogalactopyranoside. Harvested cells were kept at −20°C for future purification or resuspended in lysis buffer supplemented with protease inhibitors. Cells were further lysed by french press and the cell debris was removed by centrifugation at 18,000 rpm at 4°C. […] The overexpression of the target protein and the purified protein were confirmed by SDS-PAGE and the bands of the expected mass were observed. The determination of protein concentration by UV measurement was consistent with Bradford assay.
Calorimetric measurements of a full length Shc, PTB domain, and SH2 domain to β3 phosphopeptides or PtdIns were performed on a low volume Nano ITC (TA Instruments). All experiments were carried out in a buffer of 50 mM Tris, pH 7.5, 100 mM NaCl, 5 mM β-mercaptoethanol (unless described otherwise) at 12°C or 25°C with a stirring speed of 250 rpm to minimize the precipitation of the protein. 300 second time intervals were set between injections. The concentration of protein samples was determined by UV measurements. The titrants (β3 phosphopeptides or PtdIns) were prepared in the same buffer by the dilution of higher concentration stocks. The concentrations of the protein ranged from 30 μM to 150 μM. The concentration of protein was examined after each ITC experiment by UV to ensure the stability of proteins under the test condition. The analysis of the data was done with Nano Analyze Software (TA Instruments) suite using an “independent” model.

[2] = biological target: T2, full length Shc (1 – 473) (Homo sapiens, UniProt P29353); test: ITC binding to full length Shc; settings: full length Shc, 12°C and 25°C
T2 construct: The vector of pET28a-full length Shc (1 – 473), generously provided by Dr. Ladbury; His-tag (N); made in house; host or cells: E. coli BL21 (DE3), pET28a (vector a gift from Dr. Ladbury)
T2 sequence (P29353 1-473 isoform P29353-2): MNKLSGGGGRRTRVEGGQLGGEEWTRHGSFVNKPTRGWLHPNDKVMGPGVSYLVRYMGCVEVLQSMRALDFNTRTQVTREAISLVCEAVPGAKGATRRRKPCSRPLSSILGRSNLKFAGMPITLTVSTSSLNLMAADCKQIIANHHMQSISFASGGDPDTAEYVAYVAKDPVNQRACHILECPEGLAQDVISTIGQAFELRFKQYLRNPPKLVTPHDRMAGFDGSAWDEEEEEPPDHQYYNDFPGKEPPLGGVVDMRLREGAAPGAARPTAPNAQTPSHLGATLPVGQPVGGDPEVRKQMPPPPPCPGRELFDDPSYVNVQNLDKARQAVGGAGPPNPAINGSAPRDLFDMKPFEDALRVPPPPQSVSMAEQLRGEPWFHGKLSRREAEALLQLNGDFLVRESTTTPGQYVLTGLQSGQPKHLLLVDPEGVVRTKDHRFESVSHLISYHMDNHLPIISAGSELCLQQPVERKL
Procedure: as §1, with “The determination of protein concentration by UV measurement was consistent with Bradford assay.” left out
(§2) Calorimetric measurements of a full length Shc, PTB domain, and SH2 domain to β3 phosphopeptides or PtdIns were performed on a low volume Nano ITC (TA Instruments). […] The concentration of protein samples was determined by UV measurements. […]

[3] = system: Shc SH2 domain (380 – 473); test: ITC (and other) binding to Shc SH2 domain; settings: 12°C and 25°C
Procedure: as §1, with “The determination of protein concentration by UV measurement was consistent with Bradford assay.” left out
as §2

apo Shc PTB domain = test: 15N-HSQC NMR titration of apo Shc PTB domain; format: binding; settings: 15N-labelled apo PTB 100 – 200 μM, 50 mM Tris pH 7.5, 100 mM NaCl, 35°C; lipid to protein up to 15 to 1 (Ins(1,4,5)P3), 5 to 1 (PtdIns(4,5)P2)
Procedure: ^15N-labelled recombinant proteins were overexpressed in M9 medium supplemented with ^15NH4Cl as the sole nitrogen source. The same purification procedures as described above were followed. NMR samples of 100 – 200 μM were prepared in a buffer of 50 mM Tris, pH 7.5, 100 mM NaCl, 5 mM β-mercaptoethanol, 7% D2O, 1 mM 4,4-dimethyl-4-silapentane-1-sulfonic acid as the internal standard. ^15N-HSQC titration experiments were performed on a Varian/Agilent Inova 600 MHz spectrometer equipped with inverse-triple resonance cryo-probe at 35°C. All spectra were processed with NMRPipe and analyzed in CCPNmr Analysis software suite.
To find out the molecular details of these weak Shc-PtdIns interactions, we next employed NMR and performed ^15N-HSQC chemical shifts mapping experiments which are especially useful to define weak binding. […] Chemical shift perturbations, associated with the probes binding, were monitored. Overall, the observed shifts in Shc PTB resonance frequencies were small. However, they were concentration dependent, reproducible, and similar among the two PtdIns tested. […] The close-ups of 15N-HSQC spectra of PTB in the presence of PtdIns(4,5)P2, exemplifying the most shifted resonances, are shown in Figure 2. […] The first one, represented by the residues Q^148, S^149 and A^168, overlaps with the classical phosphotyrosine binding pocket of the protein-peptide binary complex. However, the canonical PTB fold cannot be formed without the stabilizing hydrophobic residue (pY-5) of the target peptide. Thus, in apo PTB domain Ins(1,4,5)P3 could only establish intermediate dynamic contacts with the amine functional groups of R^67 or Q^148 side chains. The second binding site, including the residues L^63, Q^76 and S^107, is formed at the interface of the second helix, the loop connecting the first beta strand with the second helix and the beginning of the second beta strand. This second PtdIns binding site is distinct from the second novel phosphotyrosine binding site we previously described for Shc PTB-bi-β3 complex, although it includes several overlapping residues. […]

full length Shc = settings: ref [21], cited from earlier work
Text: Since their discovery about two decades ago, PTB domains have been identified and structurally characterized within numerous multi-domain proteins. The ways they interact with their targets are strikingly versatile. The phosphorylated tyrosine is not always required for the high affinity interactions, and, in some cases, the binding motif might not even contain the tyrosine residue at all. PTB domains in general are also famous for the significant variance in their ligand binding affinities, ranging from 0.1 to 100 μM [17]. […] We were greatly surprised that we were not able to reproduce the data reported by George and co-workers, who have reported a tight dissociation constant (Kd of 0.7 μM) for the full length Shc. […] The conditions we tested include: i) Shc PTB domain at 12°C and 25°C in several different buffers (including exactly th ...

Structure (SMILES): O=P(O)(O)O[C@@H]1[C@H](O)[C@H](O)[C@@H](OP(=O)(O)O)[C@H](OP(=O)(O)O)[C@H]1O [Ins(1,4,5)P3, D-myo-Inositol-1,4,5-triphosphate]
- binding by ITC [1]: No binding was found; also recorded: minimal Shc PTB binding; also recorded: does not show to bind
- binding by ITC [2]: No binding was found; also recorded: does not
- binding by ITC [3]: No binding was found; also recorded: does not show to bind
- 15N-HSQC chemical shift perturbations (apo Shc PTB domain): minimal chemical shift perturbations for a handful of residues; also recorded: less pronounced compared to PtdIns(4,5)P2
- pKd (full length Shc; 50 mM Tris, pH 8.0, 200 mM NaCl, 1 mM Dithiothreitol): 6.15
- relative binding strength (full length Shc): much tighter than the binding of the isolated Shc PTB domain alone to PtdIns(4,5)P2
